Assay results taken from PubChem BioAssay AID328 (DTP/NCI, 2004).
“And” between values parts separate entries of the source, which are not always exact repeats. Identical values can stand only once. Inconclusive results and toxic doses are left out.

Tested on: BDF1 mice, P388 leukemia ip, median survival T/C
Assay: NCI In Vivo Anticancer Drug Screen. Data for tumor model P388 Leukemia (intraperitoneal) in B6D2F1 (BDF1) mice
Settings: endpoint: median survival time, higher = longer survival
Method in brief: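 Read-out is survival of treated animals expressed relative to the vehicle group, as a T/C ratio.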

[1] = dose: 100.0 mg/kg/injection, schedule: Q01DX009 (ip), vehicle: Klucel (hydroxypropylcellulose) (HPC)
[2] = dose: 100.0 mg/kg/injection, schedule: Q04DX003 (ip), vehicle: Klucel (hydroxypropylcellulose) (HPC)
[3] = dose: 200.0 mg/kg/injection, schedule: Q01DX009 (ip), vehicle: Klucel (hydroxypropylcellulose) (HPC)
[4] = dose: 200.0 mg/kg/injection, schedule: Q04DX003 (ip), vehicle: Klucel (hydroxypropylcellulose) (HPC)
[5] = dose: 25.0 mg/kg/injection, schedule: Q01DX009 (ip), vehicle: saline
[6] = dose: 50.0 mg/kg/injection, schedule: Q01DX009 (ip), vehicle: saline
[7] = dose: 100.0 mg/kg/injection, schedule: Q01DX009 (ip), vehicle: saline
[8] = dose: 50.0 mg/kg/injection, schedule: Q04DX003 (ip), vehicle: saline with Tween-80
[9] = dose: 100.0 mg/kg/injection, schedule: Q04DX003 (ip), vehicle: saline with Tween-80
[10] = dose: 200.0 mg/kg/injection, schedule: Q04DX003 (ip), vehicle: saline with Tween-80
[11] = dose: 200.0 mg/kg/injection, schedule: Q01DX009 (ip), vehicle: saline
[12] = dose: 66.0 mg/kg/injection, schedule: Q04DX003 (ip), vehicle: saline with Tween-80
[13] = dose: 50.0 mg/kg/injection, schedule: Q01DX009 (ip), vehicle: saline with Tween-80
[14] = dose: 100.0 mg/kg/injection, schedule: Q01DX009 (ip), vehicle: saline with Tween-80

In the case of `CC(C)(C)/C([O-])=N/[N+](C)(C)Cc1ccccc1`, the T/C (dose: 100.0 mg/kg/injection, schedule: Q01DX001 (ip), vehicle: saline) is reported as 109 % of control, the T/C (dose: 200.0 mg/kg/injection, schedule: Q01DX001 (ip), vehicle: saline) is reported as 104 % of control and the T/C (dose: 400.0 mg/kg/injection, schedule: Q01DX001 (ip), vehicle: saline) is reported as 104 % of control.
With `COC(CC(C)CCCC(C)(C)O)OC` (stereo unspecified) the T/C (dose: 50.0 mg/kg/injection, schedule: Q01DX009 (ip), vehicle: Klucel (hydroxypropylcellulose) (HPC)) was 110 % of control, the T/C [1] was 110 % of control and the T/C [2] was 100 % of control. The T/C [3] was 110 % of control and the T/C [4] was 112 % of control.
For `Nc1ccc2cn[nH]c2c1`, the T/C (dose: 25.0 mg/kg/injection, schedule: Q01DX009 (ip), vehicle: water) was 99 % of control, the T/C (dose: 50.0 mg/kg/injection, schedule: Q01DX009 (ip), vehicle: water) was 103 % of control and the T/C (dose: 50.0 mg/kg/injection, schedule: Q04DX003 (ip), vehicle: water) was 103 % of control. For the same molecule, the T/C (dose: 100.0 mg/kg/injection, schedule: Q01DX009 (ip), vehicle: water) was 89 % of control, the T/C (dose: 100.0 mg/kg/injection, schedule: Q04DX003 (ip), vehicle: water) was 116 % of control and the T/C (dose: 200.0 mg/kg/injection, schedule: Q01DX009 (ip), vehicle: water) was 94 % of control. For the same molecule, the T/C (dose: 200.0 mg/kg/injection, schedule: Q04DX003 (ip), vehicle: water) was 110 % of control, the T/C (dose: 400.0 mg/kg/injection, schedule: Q01DX009 (ip), vehicle: water) was 94 % of control and the T/C (dose: 400.0 mg/kg/injection, schedule: Q04DX003 (ip), vehicle: water) was 116 % of control.
For `CN1CCC(C(O)c2ccccc2)CC1` (stereo unspecified), the T/C (dose: 100.0 mg/kg/injection, schedule: Q01DX001 (ip), vehicle: Klucel (hydroxypropylcellulose) (HPC)) was 105 % of control and the T/C (dose: 200.0 mg/kg/injection, schedule: Q01DX001 (ip), vehicle: Klucel (hydroxypropylcellulose) (HPC)) was 105 % of control.
With `O=C(O)C(S)C(S)C(=O)O.[As]` (stereo unspecified) the T/C [5] was 94 % of control, the T/C (dose: 25.0 mg/kg/injection, schedule: Q04DX003 (ip), vehicle: saline sonified) was 118 % of control and the T/C [6] was 88 % of control. The T/C (dose: 50.0 mg/kg/injection, schedule: Q04DX003 (ip), vehicle: saline sonified) was 118 % of control, the T/C [7] was 88 % of control and the T/C (dose: 100.0 mg/kg/injection, schedule: Q04DX003 (ip), vehicle: saline sonified) was 122 % of control.
For `C=CC1CN2CCC1CC2C(O)c1ccnc2ccccc12` (stereo unspecified), the T/C [8] was 102 % of control, the T/C [9] was 88 % of control and the T/C [10] was 107 % of control.
`O=C(O)C1C2C=CC(C3C=CC32)C1C(=O)O` (stereo unspecified) was tested, and the T/C [5] was 97 % of control, the T/C [6] was 93 % of control and the T/C [7] was 97 % of control. The T/C [11] was 96 % of control and the T/C (dose: 400.0 mg/kg/injection, schedule: Q01DX009 (ip), vehicle: saline) was 102 % of control.
In the case of `CCOP(=S)(N1CC1C)N1CC1C` (stereo unspecified), the T/C [12] is reported as 116 % of control, the T/C (dose: 100.0 mg/kg/injection, schedule: Q01DX007 (ip), vehicle: saline with Tween-80) is reported as 163 % of control and the T/C [9] is reported as 112 % of control. For the same molecule, the T/C (dose: 150.0 mg/kg/injection, schedule: Q01DX007 (ip), vehicle: saline with Tween-80) was 159 % of control and the T/C (dose: 150.0 mg/kg/injection, schedule: Q04DX003 (ip), vehicle: saline with Tween-80) was 120 % of control.
`ClC(Cl)(Cl)c1nc2nccnc2[nH]1` was tested, and the T/C (dose: 44.0 mg/kg/injection, schedule: Q04DX003 (ip), vehicle: Klucel (hydroxypropylcellulose) (HPC)) was 104 % of control, the T/C [8] was 109 % of control and the T/C (dose: 66.0 mg/kg/injection, schedule: Q04DX003 (ip), vehicle: Klucel (hydroxypropylcellulose) (HPC)) was 108 % of control. For the same molecule, the T/C [12] was 109 % of control, the T/C [9] was 104 % of control and the T/C (dose: 150.0 mg/kg/injection, schedule: Q04DX003 (ip), vehicle: Klucel (hydroxypropylcellulose) (HPC)) was 100 % of control.
`Cc1ccc(/C(CN2CCOCC2)=N\O)cc1` was tested, and the T/C (dose: 50.0 mg/kg/injection, schedule: Q01DX001 (ip), vehicle: saline sonified) was 105 % of control, the T/C (dose: 100.0 mg/kg/injection, schedule: Q01DX001 (ip), vehicle: saline sonified) was 105 % of control and the T/C (dose: 200.0 mg/kg/injection, schedule: Q01DX001 (ip), vehicle: saline sonified) was 105 % of control.
In the case of `COC1=CC(=O)c2c(O)cc(OC)c(O)c2C1=O`, the T/C (dose: 2.5 mg/kg/injection, schedule: Q01DX009 (ip), vehicle: saline with Tween-80) is reported as 104 % of control and the T/C (dose: 5.0 mg/kg/injection, schedule: Q01DX009 (ip), vehicle: saline with Tween-80) is reported as 113 % of control.
In the case of `CCSc1ccc2c(cc1=O)[C@@H](NC1OC(CO)C(O)C(O)C1O)CCc1cc(OC)c(OC)c(OC)c1-2` (stereo partly specified), the T/C (dose: 50.0 mg/kg/injection, schedule: Q01DX009 (ip), vehicle: other) is reported as 106 % of control and 111 % of control, the T/C (dose: 100.0 mg/kg/injection, schedule: Q01DX009 (ip), vehicle: other) is reported as 106 % of control and 115 % of control and the T/C (dose: 200.0 mg/kg/injection, schedule: Q01DX009 (ip), vehicle: other) is reported as 112 % of control.
`Cc1ccc(S(=O)(=O)Cl)c(Cl)c1` was tested, and the T/C (dose: 25.0 mg/kg/injection, schedule: Q01DX009 (ip), vehicle: saline with Tween-80) was 100 % of control, the T/C [13] was 116 % of control and the T/C [8] was 104 % of control. The T/C [14] was 112 % of control and the T/C [9] was 113 % of control.
For `Cc1ccccc1/C=C1\CC(C)(C)c2ccccc2C1=O`, the T/C [1] was 100 % of control, the T/C [2] was 95 % of control and the T/C [3] was 95 % of control. For the same molecule, the T/C [4] was 95 % of control, the T/C (dose: 400.0 mg/kg/injection, schedule: Q01DX009 (ip), vehicle: Klucel (hydroxypropylcellulose) (HPC)) was 104 % of control and the T/C (dose: 400.0 mg/kg/injection, schedule: Q04DX003 (ip), vehicle: Klucel (hydroxypropylcellulose) (HPC)) was 95 % of control.
With `CCN1CC2(COC)C(O)CC(OC)C34C5CC6(O)C(OC)C=C(C5C6OC(=O)c5ccc(OC)c(OC)c5)C(C(OC)C23)C14` (stereo unspecified) the T/C (dose: 0.19 mg/kg/injection, schedule: Q01DX009 (ip), vehicle: saline with Tween-80) was 120 % of control, the T/C (dose: 0.38 mg/kg/injection, schedule: Q01DX009 (ip), vehicle: saline with Tween-80) was 94 % of control and the T/C (dose: 0.75 mg/kg/injection, schedule: Q01DX009 (ip), vehicle: saline with Tween-80) was 90 % of control.
In the case of `CC(CN1c2ccccc2Sc2ccccc21)N(C)C` (stereo unspecified), the T/C (dose: 18.75 mg/kg/injection, schedule: Q01DX009 (ip), vehicle: saline) is reported as 100 % of control, the T/C (dose: 37.5 mg/kg/injection, schedule: Q04DX003 (ip), vehicle: saline) is reported as 121 % of control and the T/C (dose: 75.0 mg/kg/injection, schedule: Q04DX003 (ip), vehicle: saline) is reported as 117 % of control. The T/C (dose: 150.0 mg/kg/injection, schedule: Q04DX003 (ip), vehicle: saline) was 95 % of control.
`CC(C)(N)CNC(C)(C)CO` was tested, and the T/C [6] was 95 % of control, the T/C [7] was 111 % of control and the T/C [11] was 92 % of control.
For `Cc1ccc(Cl)c([N+](=O)[O-])c1N`, the T/C [13] was 104 % of control, the T/C [14] was 87 % of control and the T/C (dose: 200.0 mg/kg/injection, schedule: Q01DX009 (ip), vehicle: saline with Tween-80) was 91 % of control.
For `CN=C(N)NCCCCCCCCNC(N)=NC`, the T/C (dose: 6.25 mg/kg/injection, schedule: Q01DX009 (ip), vehicle: saline) was 110 % of control and the T/C (dose: 12.5 mg/kg/injection, schedule: Q01DX009 (ip), vehicle: saline) was 122 % of control.
For `C[C@]12CC[C@@H]3c4ccccc4CC[C@H]3[C@@H]1CC[C@@H]2O`, the T/C [9] was 90 % of control, the T/C [10] was 90 % of control and the T/C (dose: 400.0 mg/kg/injection, schedule: Q04DX003 (ip), vehicle: saline with Tween-80) was 100 % of control.
In the case of `Cc1cc(NCCCCNCCCNc2cc(C)nc3cc(N)ccc23)c2ccc(N)cc2n1`, the T/C (dose: 12.5 mg/kg/injection, schedule: Q01DX009 (ip), vehicle: other) is reported as 155 % of control.
For `N=C(N)c1ccc(Nc2ccc(C(=N)N)cc2)cc1`, the T/C (dose: 3.0 mg/kg/injection, schedule: Q01DX010 (ip), vehicle: saline) was 100 % of control, the T/C (dose: 6.0 mg/kg/injection, schedule: Q01DX010 (ip), vehicle: saline) was 91 % of control and 95 % of control and the T/C (dose: 12.0 mg/kg/injection, schedule: Q01DX010 (ip), vehicle: saline) was 91 % of control and 100 % of control. For the same molecule, the T/C (dose: 24.0 mg/kg/injection, schedule: Q01DX010 (ip), vehicle: saline) was 95 % of control.
